Measurements: the supplement of paper PMC10307832

How the values were obtained:
Test in all cases: relative viability (nuclei count vs DMSO), 5 days (fraction); higher = more cells survive
NCI-H322M = system: NCI-H322M
Summary of the method: (§1)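 Medians of duplicate plates are given as relative viability. That measure is the nuclei count in treated wells divided by the count in vehicle wells. Counts were taken on 4× images of lung cancer cell lines in 1536-well plates, 5 days after pin-tool dosing the day after seeding with one drug alone or a fixed anchor-drug dose plus five library-drug doses (not always all listed) in √10 steps.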

HCC-44 = system: HCC-44
Summary of the method: as §1

NCI-H1792 = system: NCI-H1792
Summary of the method: as §1

NCI-H2347 = system: NCI-H2347
Summary of the method: as §1

RERF-LC-KJ = system: RERF-LC-KJ
Summary of the method: as §1

NCI-H1944 = system: NCI-H1944
Summary of the method: as §1

SK-LU-1 = system: SK-LU-1
Summary of the method: as §1

NCI-H1755 = system: NCI-H1755
Summary of the method: as §1

NCI-H1793 = system: NCI-H1793
Summary of the method: as §1

ChaGo-K-1 = system: ChaGo-K-1
Summary of the method: as §1

NCI-H1666 = system: NCI-H1666
Summary of the method: as §1

CCNC(=O)c1noc(-c2cc(C(C)C)c(O)cc2O)c1-c1ccc(CN2CCOCC2)cc1 [Luminespib] + Nc1nc2[nH]cc(CCc3ccc(C(=O)N[C@@H](CCC(=O)O)C(=O)O)cc3)c2c(=O)[nH]1 [Pemetrexed] (partner 0.2 µM)
relative viability (NCI-H322M; first compound 0.002 µM): 0.638
relative viability (NCI-H322M; first compound 0.006325 µM): 0.507
relative viability (NCI-H322M; first compound 0.02 µM): 0.596
relative viability (NCI-H322M; first compound 0.06325 µM): 0.409
relative viability (NCI-H322M; first compound 0.2 µM): 0.376
relative viability (HCC-44; first compound 0.002 µM): 0.613
relative viability (HCC-44; first compound 0.006325 µM): 0.611
relative viability (HCC-44; first compound 0.02 µM): 0.773
relative viability (HCC-44; first compound 0.06325 µM): 0.659
relative viability (HCC-44; first compound 0.2 µM): 0.657
relative viability (NCI-H1792; first compound 0.002 µM): 0.816
relative viability (NCI-H1792; first compound 0.006325 µM): 0.615
relative viability (NCI-H1792; first compound 0.02 µM): 0.117
relative viability (NCI-H1792; first compound 0.06325 µM): 0.0474
relative viability (NCI-H1792; first compound 0.2 µM): 0.0496
relative viability (NCI-H2347; first compound 0.002 µM): 0.402
relative viability (NCI-H2347; first compound 0.006325 µM): 0.404
relative viability (NCI-H2347; first compound 0.02 µM): 0.426
relative viability (NCI-H2347; first compound 0.06325 µM): 0.42
relative viability (NCI-H2347; first compound 0.2 µM): 0.317
relative viability (RERF-LC-KJ; first compound 0.002 µM): 0.474
relative viability (RERF-LC-KJ; first compound 0.006325 µM): 0.449
relative viability (RERF-LC-KJ; first compound 0.02 µM): 0.462
relative viability (RERF-LC-KJ; first compound 0.06325 µM): 0.287
relative viability (RERF-LC-KJ; first compound 0.2 µM): 0.219
relative viability (NCI-H1944; first compound 0.002 µM): 0.636
relative viability (NCI-H1944; first compound 0.006325 µM): 0.602
relative viability (NCI-H1944; first compound 0.02 µM): 0.477
relative viability (NCI-H1944; first compound 0.06325 µM): 0.258
relative viability (NCI-H1944; first compound 0.2 µM): 0.149
relative viability (SK-LU-1; first compound 0.002 µM): 1.01
relative viability (SK-LU-1; first compound 0.006325 µM): 0.779
relative viability (SK-LU-1; first compound 0.02 µM): 0.825
relative viability (SK-LU-1; first compound 0.06325 µM): 0.244
relative viability (SK-LU-1; first compound 0.2 µM): 0.206
relative viability (NCI-H1755; first compound 0.002 µM): 0.415
relative viability (NCI-H1755; first compound 0.006325 µM): 0.424
relative viability (NCI-H1755; first compound 0.02 µM): 0.415
relative viability (NCI-H1755; first compound 0.06325 µM): 0.264
relative viability (NCI-H1755; first compound 0.2 µM): 0.2
relative viability (NCI-H1793; first compound 0.002 µM): 0.859
relative viability (NCI-H1793; first compound 0.006325 µM): 0.741
relative viability (NCI-H1793; first compound 0.02 µM): 0.294
relative viability (NCI-H1793; first compound 0.06325 µM): 0.122
relative viability (NCI-H1793; first compound 0.2 µM): 0.119
relative viability (ChaGo-K-1; first compound 0.002 µM): 0.27
relative viability (ChaGo-K-1; first compound 0.006325 µM): 0.253
relative viability (ChaGo-K-1; first compound 0.02 µM): 0.253
relative viability (ChaGo-K-1; first compound 0.06325 µM): 0.248
relative viability (ChaGo-K-1; first compound 0.2 µM): 0.206
relative viability (NCI-H1666; first compound 0.002 µM): 0.876
relative viability (NCI-H1666; first compound 0.006325 µM): 0.799
